Measured values taken from patent publication US20250333397A1 (REMIX THERAPEUTICS INC., priority 2021, published 2025).
Read-outs that look alike come from different tables or passages of the source.

Assays:
Assay type in all cases: cell-based, human
Target C mRNA = assay: RT-qPCR splicing assay panel, Target C canonical junction (CJ) mRNA; conditions: Homo sapiens
Summary of the method: (§1)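 CJ and AJ junction levels were quantified by RT-qPCR on lysates, with housekeeper ΔCt normalized to DMSO (ΔΔCt) and expressed as RQ = 2^(-ΔΔCt). Before lysis, K562 or A673 cells had 24 h compound exposure at 37 °C. Dosing was 11 points, 3-fold, from 10 uM final, with DMSO at most 0.25%.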

SMN2 mRNA = assay: RT-qPCR splicing assay panel, SMN2 canonical junction (CJ) mRNA; conditions: Homo sapiens
Summary of the method: as §1

MYB mRNA = assay: RT-qPCR splicing assay, MYB canonical (CJ) and alternative (AJ) junction mRNA; conditions: Homo sapiens; for AC50: read-out: MYB AJ (AC50, increase in AJ mRNA)
Summary of the method: as §1

HTT mRNA = assay: RT-qPCR splicing assay, HTT canonical (CJ) and alternative (AJ) junction mRNA; conditions: Homo sapiens; for AC50: read-out: HTT AJ (AC50, increase in AJ mRNA)
Summary of the method: as §1

[1] = canonical junction (CJ) mRNA, RT-qPCR panel, Table 4A, read-out: Target C, decrease in CJ mRNA levels, IC50
[2] = canonical junction (CJ) mRNA, RT-qPCR panel, Table 4A, read-out: SMN2, decrease in CJ mRNA levels, IC50
[3] = 24 h, Table 3A, A673 or K562 cells, 24 h treatment
[4] = 24 h, Table 3A, A673 or K562 cells, 24 h treatment, read-out: MYB CJ (IC50, decrease in CJ mRNA)
[5] = canonical junction (CJ) mRNA, RT-qPCR panel, Table 4A, read-out: MYB, decrease in CJ mRNA levels, IC50
[6] = 24 h, Table 3A, A673 or K562 cells, 24 h treatment, read-out: HTT CJ (IC50, decrease in CJ mRNA)
[7] = canonical junction (CJ) mRNA, RT-qPCR panel, Table 4A, read-out: HTT, decrease in CJ mRNA levels, IC50
[8] = Table 4B, gene panel, read-out: Target C (IC50, decrease in CJ mRNA levels)
[9] = Table 4B, gene panel, read-out: SMN2 (IC50, decrease in CJ mRNA levels)
[10] = 24 h, Table 3B, A673 or K562 cells, 24 h treatment
[11] = 24 h, Table 3B, A673 or K562 cells, 24 h treatment, read-out: MYB CJ (IC50, decrease in CJ mRNA)
[12] = Table 4B, gene panel, read-out: MYB (IC50, decrease in CJ mRNA levels)
[13] = 24 h, Table 3B, A673 or K562 cells, 24 h treatment, read-out: HTT CJ (IC50, decrease in CJ mRNA)
[14] = Table 4B, gene panel, read-out: HTT (IC50, decrease in CJ mRNA levels)

Row | Structure (SMILES) | IC50 (Target C mRNA; [1]) | IC50 (SMN2 mRNA; [2]) | AC50 (MYB mRNA; [3]) | IC50 (MYB mRNA; [4]) | IC50 (MYB mRNA; [5]) | AC50 (HTT mRNA; [3]) | IC50 (HTT mRNA; [6]) | IC50 (HTT mRNA; [7]) | IC50 (Target C mRNA; [8]) | IC50 (SMN2 mRNA; [9]) | AC50 (MYB mRNA; [10]) | IC50 (MYB mRNA; [11]) | IC50 (MYB mRNA; [12]) | AC50 (HTT mRNA; [10]) | IC50 (HTT mRNA; [13]) | IC50 (HTT mRNA; [14])
1 | Cc1ncc(-c2cc(O)c(-c3ccc(N4CC[C@@H](NC5CCC5)C4)nn3)cc2F)s1 [Compound 146, 2-{6-[(3R)-3-(cyclobutylamino)pyrrolidin-1-yl]pyridazin-3-yl}-4-fluoro-5-(2-methyl-1,3-thiazol-5-yl)phenol] | < 100 nM | < 100 nM | < 100 nM | < 100 nM | < 100 nM | < 100 nM | < 100 nM | < 100 nM |  |  |  |  |  |  |  | 
2 | COc1cc(-c2ccc(-c3ccc(N4CC[C@@H](N(C)C(C)(C)C)C4)nn3)c(O)c2)cnn1 [Compound 336, 2-{6-[(3R)-3-[tert-butyl(methyl)amino]pyrrolidin-1-yl]pyridazin-3-yl}-5-(6-methoxypyridazin-4-yl)phenol] | < 100 nM | < 100 nM | < 100 nM | < 100 nM | < 100 nM | < 100 nM | < 100 nM | < 100 nM |  |  |  |  |  |  |  | 
3 | Cc1ncc(-c2cc(O)c(-c3ccc(N4CC[C@H](N(C)C5CCC5)C4)nn3)cc2F)s1 [Compound 267] | < 100 nM | < 100 nM | < 100 nM | < 100 nM | < 100 nM | < 100 nM | < 100 nM | < 100 nM |  |  |  |  |  |  |  | 
4 | NCCNC1CCN(c2ccc(-c3ccc(-c4cn[nH]c4)cc3O)nn2)C1 (stereo not drawn) [Compound 208] | 1000 to 10000 nM | 100 to 1000 nM | 100 to 1000 nM | 1000 to 10000 nM | 1000 to 10000 nM | 100 to 1000 nM | 100 to 1000 nM | 100 to 1000 nM |  |  |  |  |  |  |  | 
5 | Oc1cc(-c2ccc(-c3ccc(N4CC[C@H](NC5CCC5)C4)nn3)c(O)c2)cnn1 [Compound 420, 5-(4-{6-[(3S)-3-(cyclobutylamino)pyrrolidin-1-yl]pyridazin-3-yl}-3-hydroxyphenyl)pyridazin-3-ol] | 1000 to 10000 nM | 100 to 1000 nM | > 10000 nM | 1000 to 10000 nM | 1000 to 10000 nM | 1000 to 10000 nM | 100 to 1000 nM | 100 to 1000 nM |  |  |  |  |  |  |  | 
6 | COc1cc(-c2ccc(-c3ccc(N4CC[C@H](NC(C)(C)C)C4)nn3)c(O)c2)cnn1 [Compound 210, 2-{6-[(3S)-3-(tert-butylamino)pyrrolidin-1-yl]pyridazin-3-yl}-5-(6-methoxypyridazin-4-yl)phenol] | < 100 nM | < 100 nM | < 100 nM | < 100 nM | < 100 nM | < 100 nM | < 100 nM | < 100 nM |  |  |  |  |  |  |  | 
7 | CN(C1CCC1)[C@H]1CCN(c2ccc(-c3ccc(-c4cn[nH]c4)cc3O)nn2)C1 [Compound 294, 2-{6-[(3S)-3-[cyclobutyl(methyl)amino]pyrrolidin-1-yl]pyridazin-3-yl}-5-(1H-pyrazol-4-yl)phenol] | 100 to 1000 nM | < 100 nM | 100 to 1000 nM | 100 to 1000 nM | 100 to 1000 nM | 100 to 1000 nM | < 100 nM | < 100 nM |  |  |  |  |  |  |  | 
8 | Cc1ncc(-c2cc(O)c(-c3ccc(N4CC[C@H](N(C)C(C)(C)C)C4)nn3)cc2F)s1 [Compound 322, 2-{6-[(3S)-3-[tert-butyl(methyl)amino]pyrrolidin-1-yl]pyridazin-3-yl}-4-fluoro-5-(2-methyl-1,3-thiazol-5-yl) phenol] | < 100 nM | < 100 nM | < 100 nM | < 100 nM | < 100 nM | < 100 nM | < 100 nM | < 100 nM |  |  |  |  |  |  |  | 
9 | COc1cc(-c2ccc(-c3ccc(N4CC[C@H](NCC5CC5)C4)nn3)c(O)c2)ncn1 [Compound 381, 2-{6-[(3S)-3-[(cyclopropylmethyl)amino]pyrrolidin-1-yl]pyridazin-3-yl}-5-(6-methoxypyrimidin-4-yl)phenol] | 100 to 1000 nM | < 100 nM | 100 to 1000 nM | 100 to 1000 nM | 100 to 1000 nM | 100 to 1000 nM | < 100 nM | < 100 nM |  |  |  |  |  |  |  | 
10 | Cc1nc2cc(O)c(-c3ccc(N4CC[C@H](N(C)C(C)(C)C)C4)nn3)cc2o1 [Compound 858] |  |  |  |  |  |  |  |  | 100 to 1000 nM | < 100 nM | 100 to 1000 nM | 100 to 1000 nM | 100 to 1000 nM | < 100 nM | < 100 nM | < 100 nM
11 | COc1cc(-c2ccc(-c3ccc(N4CC[C@@](C)(NC5CCC5)C4)nn3)c(O)c2)ncn1 [Compound 366, 2-{6-[(3R)-3-(cyclobutylamino)-3-methylpyrrolidin-1-yl]pyridazin-3-yl}-5-(6-methoxypyrimidin-4-yl)phenol] | 100 to 1000 nM | < 100 nM | 100 to 1000 nM | 100 to 1000 nM | 100 to 1000 nM | < 100 nM | < 100 nM | < 100 nM |  |  |  |  |  |  |  | 
12 | Cc1ncc(-c2cc(O)c(-c3ccc(N4CC[C@@H](N(C)C5CCC5)C4)nn3)cc2F)s1 [Compound 269] | < 100 nM | < 100 nM | 100 to 1000 nM | < 100 nM | < 100 nM | < 100 nM | < 100 nM | < 100 nM |  |  |  |  |  |  |  | 
13 | Oc1cc(-c2cn[nH]c2)c(F)cc1-c1ccc(N2CC[C@H](NC3CCC3)C2)nn1 [Compound 113, 2-{6-[(3S)-3-(cyclobutylamino)pyrrolidin-1-yl]pyridazin-3-yl}-4-fluoro-5-(1H-pyrazol-4-yl)phenol] | < 100 nM | < 100 nM | < 100 nM | < 100 nM | < 100 nM | < 100 nM | < 100 nM | < 100 nM |  |  |  |  |  |  |  | 
14 | Cc1ncc(-c2cc(O)c(-c3ccc(N4CC[C@H](CNC5CCC5)C4)nn3)cc2F)s1 [Compound 454] | 100 to 1000 nM | < 100 nM |  |  | 1000 to 10000 nM |  |  | < 100 nM |  |  |  |  |  |  |  | 
15 | Cc1ncc(-c2ccc(-c3ccc(N4CC[C@](C)(NCC5CC5)C4)nn3)c(O)c2)s1 (single isomer, unassigned) [Compound 438] | 100 to 1000 nM | < 100 nM | 100 to 1000 nM | 100 to 1000 nM | 100 to 1000 nM | 100 to 1000 nM | < 100 nM | < 100 nM |  |  |  |  |  |  |  | 
16 | CN(C1CCC1)[C@@H]1CCN(c2ccc(-c3ccc(-c4cn[nH]c4)cc3O)nn2)C1 [Compound 296, 2-{6-[(3R)-3-[cyclobutyl(methyl)amino]pyrrolidin-1-yl]pyridazin-3-yl}-5-(1H-pyrazol-4-yl)phenol] | 100 to 1000 nM | < 100 nM | 100 to 1000 nM | 100 to 1000 nM | 100 to 1000 nM | 100 to 1000 nM | 100 to 1000 nM | 100 to 1000 nM |  |  |  |  |  |  |  | 
17 | Cc1ncc(-c2cc(O)c(-c3ccc(N4CCC(NC5CCOC5)C4)nn3)cc2F)s1 (stereo not drawn) [Compound 350, 4-fluoro-5-(2-methyl-1,3-thiazol-5-yl)-2-{6-[3-(oxolan-3-ylamino)pyrrolidin-1-yl]pyridazin-3-yl}phenol] | < 100 nM | < 100 nM | 100 to 1000 nM | < 100 nM | < 100 nM | < 100 nM | < 100 nM | < 100 nM |  |  |  |  |  |  |  | 
18 | CN(C1CCN(c2ccc(-c3cc(F)c(-c4cn[nH]c4)cc3O)nn2)C1)C(C)(C)C (stereo in doubt) [Compound 120, 2-{6-[(3R)-3-[tert-butyl(methyl)amino]pyrrolidin-1-yl]pyridazin-3-yl}-4-fluoro-5-(1H-pyrazol-4-yl)phenol] | < 100 nM | < 100 nM | < 100 nM | < 100 nM | < 100 nM | < 100 nM | < 100 nM | < 100 nM |  |  |  |  |  |  |  | 
19 | COc1nc(-c2cnc(N3CCC(NC(C)(C)C)C3)nn2)ccc1-c1cnc(C)s1 (stereo not drawn) [Compound 422] | 100 to 1000 nM | < 100 nM | 100 to 1000 nM | 100 to 1000 nM | 100 to 1000 nM | < 100 nM | < 100 nM | < 100 nM |  |  |  |  |  |  |  | 
20 | Cn1cc2cc(-c3cnc(N4CC[C@@H](NC(C)(C)C)C4)nn3)c(O)cc2n1 [Compound 805] |  |  |  |  |  |  |  |  | 1000 to 10000 nM | 1000 to 10000 nM | > 10000 nM | 1000 to 10000 nM | 1000 to 10000 nM | 1000 to 10000 nM | 100 to 1000 nM | 100 to 1000 nM
